Results reported in article PMC7229567, “Comparative Pharmacokinetics of Geniposidic Acid, Genipin-1-β-Gentiobioside, Geniposide, Genipin, and Crocetin in Rats after Oral Administration of Crude Gardeniae Fructus and Its Three Processed Products Using LC-MS/MS” (Evidence-based Complementary and Alternative Medicine : eCAM, 2020).
Where two headings read alike, the source gives them in different places.

Experiments:
[1] = Stability of the analytes in rat plasma QC samples under storage conditions; format: in vitro ADME; settings: for Freeze-thaw cycles Remain: three freeze-thaw cycles
Experimental: Quality control (QC) samples containing geniposidic acid, geniposide, genipin-1-β-gentiobioside, genipin, and crocetin were prepared at LLOQ (10 ng/mL), low (30 ng/mL), medium (300 ng/mL), and high concentrations (3000 ng/mL), spiking with appropriate standard solutions with blank plasma to establish calibration curve and method validation. The samples were prepared by the same procedures for plasma samples as described below. The stability of 5 components in the plasma was obtained by evaluating QC samples at four concentration levels with three replicates in different conditions. The QC samples were kept at room temperature for 12 h to determine the short-term stability. Freeze-thaws stability was tested after three freeze-thaw (−80°C at room temperature) on three consecutive days. Long-term stability was tested by evaluating QC samples stored at −80°C for one month. The stability of the five components in rat plasma was determined by evaluating QC samples stored at different temperature and timing conditions. All the components were stable in the autosampler for 24 h, after three freeze-thaw cycles and at a month at −80°C.

[2] = Pharmacokinetics in rat plasma after oral administration of CGF, SGF, GCGF and GIGF extracts (LC-MS/MS); settings: for AUC(0–t24) ratio relative to CGF / Cmax / Tmax / T 1/2 / C max / T max: rat plasma; for AUC(0–t24) ratio relative to CGF: oral; for Cmax / half-life / Tmax: male, Sprague-Dawley, rat, plasma, po, 0.75 mL/kg; for Cmax: C max; for Cmax / half-life / Tmax / T 1/2 / C max / T max: n = 6, mean ± SD; for half-life: T 1/2, rat plasma; for Tmax: T max
Text: (§1) The LC-ESI-MS/MS system is composed of an Agilent 1200 series LC system (Agilent Technologies, USA) including a binary pump, a vacuum degasser unit, an autosampler, and an API 3200 triple quadrupole mass Spectrometer with an ESI source (Concord, Ontario, Canada). Data was acquired by Analyst 1.4.2 software (AB MDS Sciex).
(§2) The Agilent Eclipse plus C18 (4.6 × 100 mm, 1.8 μm) column with a guard column was used to separate multiple ingredients. The mobile phases were methanol (A) and water (B) with a gradient elution of 3–36% A at 0–3 min, 36–36% A at 3–15 min, 36–97% A at 15–16 min, and 97–97% A at 16–26 min, then back from 97% to 3% balanced for 10 min. The flow rate was set at 0.3 mL/min and the column temperature was set at 30°C. The injection volume was 5 μL.
(§3) The detection was operated in Multiple Reaction Monitoring (MRM) mode. The source parameters were as follows: curtain gas, collision gas, ion spray voltage, temperature, ion source gas 1, and ion source gas 2 were set at 20 psi, 5 psi, 5500 V, 450°C, 40 psi, and 40 psi, respectively. Nitrogen was the only gas used in the experiment.
(§4) A total of 24 male Sprague-Dawley rats (weight: 220–250 g) were obtained from animal center of Tianjin University of Traditional Chinese Medicine (Tianjin, China). Those rats were randomly divided into four groups (CGF, SGF, GCGF, and GIGF groups) and were housed in an environmentally controlled room (temperature 20–25°C, humidity 60 ± 5%). The rats were allowed free accessibility to food and water in the first week. They were fasted for 12 h before the experiment with water taken freely. The animal experiments were according to the Guidelines for the Care and Use of Laboratory Animals and were approved by the Animal Ethics Committee of Tianjin University of Traditional Chinese Medicine. The rats were randomly divided into four groups. Six rats in each group were separately given single dose of 0.75 mL/kg (0.9 g·kg herbal medicine) extract solution of four kinds of GFs vial oral administration. Blood samples (about 300 μL) were collected at 0, 0.08, 0.25, 0.5, 1, 2, 4, 6, 8, 10, 12, 14, and 24 h. The blood samples were collected in heparinized tubes and immediately centrifuged at 6000 rpm for 10 min at 4°C. The plasma samples were stored at −80°C until analysis.
(§5) The plasma sample (100 μL) was spiked with 20 μL IS working solution and 10 μL formic acid in an Eppendorf tube. Samples were vortex for 30 s, and then 1 mL acetonitrile was added to precipitate protein. Then samples were vortexed for 2 min and the tubes were centrifuged at 14000 rpm for 10 min. The upper organic phase was transferred into a new tube and evaporated to dryness under a flow of nitrogen gas. The residue was reconstituted with 50% methanol 100 μL. After centrifuging at 14000 rpm for 10 min, the supernatant was transferred into an autosampler vial and a volume of 5 μL was injected into the HPLC-ESI-MS/MS for analysis.
(§6) The pharmacokinetic parameters were calculated using a Drug and Statistics 1.0 (DAS 1.0) software (Medical College of Wannan, China). The pharmacokinetic parameters included time of maximum concentration (Tmax), maximum plasma concentration (Cmax), elimination half-life (T1/2), and area under concentrations curve (AUC0–t and AUC0–∞). All values were expressed as mean ± SD. A paired t test was used to test the difference among these groups.

[3] = in vivo, po
Text: as §1, §2, §3, §4, §5, §6

[4] = single oral dose of CGF extract 0.75 mL/kg
[5] = single oral dose of GCGF extract 0.75 mL/kg
[6] = single oral dose of GIGF extract 0.75 mL/kg
[7] = single oral dose of SGF extract 0.75 mL/kg

SMILES | At −80°C for a month Remain ([1]; 10 ng/mL) | Autosampler for 24 h Remain ([1]; 10 ng/mL) | Freeze-thaw cycles Remain ([1]; 10 ng/mL) | At −80°C for a month Remain ([1]; 30 ng/mL) | Autosampler for 24 h Remain ([1]; 30 ng/mL) | Freeze-thaw cycles Remain ([1]; 30 ng/mL) | At −80°C for a month Remain ([1]; 300 ng/mL) | Autosampler for 24 h Remain ([1]; 300 ng/mL) | Freeze-thaw cycles Remain ([1]; 300 ng/mL) | At −80°C for a month Remain ([1]; 3000 ng/mL) | Autosampler for 24 h Remain ([1]; 3000 ng/mL) | Freeze-thaw cycles Remain ([1]; 3000 ng/mL) | Cmax [2, 4] | Cmax [2, 5] | Cmax [2, 7] | half-life [2, 4] | half-life [2, 7] | Tmax [2, 4] | Tmax [2, 5] | Tmax [2, 7] | also measured
O=C(O)C1=CO[C@@H](O[C@@H]2O[C@H](CO)[C@@H](O)[C@H](O)[C@H]2O)[C@@H]2C(CO)=CC[C@H]12 [Geniposidic acid] | 107% | 94.7% | 96.3% | 98.0% | 96.4% | 101% | 106% | 96.4% | 107% | 99.9% | 96.7% | 108% | 1020 ± 450 ng/mL | 670 ± 432 ng/mL | 398 ± 108 ng/mL | 2.52 ± 0.64 h | 2.93 ± 3.45 h | 3.33 ± 1.63 h | 3.33 ± 3.43 h | 1.78 ± 0.44 h | AUC(0–t24) ratio relative to CGF ([2]; GCGF vs CGF (CGF = 1)): 0.39; AUC(0–t24) ratio relative to CGF ([2]; GIGF vs CGF (CGF = 1)): 0.15; AUC(0–t24) ratio relative to CGF ([2]; SGF vs CGF (CGF = 1)): 0.22; Cmax [2, 6]: 272 ± 164 ng/mL; half-life [2, 5]: 1.72 ± 0.69 h; half-life [2, 6]: 1.5 ± 0.42 h; Tmax [2, 6]: 2.4 ± 1.26 h
COC(=O)C1=CO[C@@H](O[C@@H]2O[C@H](CO)[C@@H](O)[C@H](O)[C@H]2O)[C@@H]2C(CO)=CC[C@H]12 [Geniposide] | 99.2% | 102% | 97.5% | 98.4% | 95.1% | 92.8% | 94.8% | 96.3% | 93.1% | 92.8% | 91.6% | 95.0% | 1070 ± 598 ng/mL | 581 ± 241 ng/mL | 455 ± 160 ng/mL | 3.21 ± 2.31 h | 1.61 ± 0.63 h | 1.54 ± 1.3 h | 0.86 ± 0.13 h | 0.89 ± 0.72 h | Cmax [2, 6]: 212 ± 109 ng/mL; half-life [2, 6]: 1.08 ± 0.45 h; Tmax [2, 6]: 1.3 ± 0.48 h; T 1/2 [2, 5]: 1.44 ± 0.53^∗ h
COC(=O)C1=CO[C@@H](O[C@@H]2O[C@H](CO[C@@H]3O[C@H](CO)[C@@H](O)[C@H](O)[C@H]3O)[C@@H](O)[C@H](O)[C@H]2O)[C@@H]2C(CO)=CC[C@H]12 [Genipin-1-β-gentiobioside] | 95.8% | 99.3% | 104% | 96.3% | 100% | 105% | 95.1% | 101% | 101% | 95.1% | 90.7% | 103% |  |  |  |  |  |  |  |  | C max [2, 4]: 149.90 ± 132.07 ng/mL; T 1/2 [2, 4]: 0.72 ± 0.25 h; T max [2, 4]: 0.55 ± 0.33 h; C max [2, 5]: 102.92 ± 58.15 ng/mL; T 1/2 [2, 5]: 0.78 ± 0.32 h; T max [2, 5]: 0.78 ± 0.20 h; C max [2, 6]: 62.94 ± 16.81 ng/mL; T 1/2 [2, 6]: 0.91 ± 0.36 h; T max [2, 6]: 1.05 ± 0.37^∗# h; C max [2, 7]: 79.08 ± 39.47 ng/mL; T 1/2 [2, 7]: 0.61 ± 0.18 h; T max [2, 7]: 0.61 ± 0.31 h
COC(=O)C1=CO[C@@H](O)[C@@H]2C(CO)=CC[C@H]12 [Genipin] | 108% | 95.4% |  | 103% | 104% | 95.3% | 105% | 90.6% | 95.9% | 101% | 92.6% | 100% | 76.4 ± 40.9 ng/mL | 68.5 ± 19.4 ng/mL | 98 ± 41.8 ng/mL | 3.42 ± 1.94 h | 1.39 ± 0.88 h | 1.11 ± 0.4 h | 1.1 ± 0.52 h | 1 ± 0.55 h | Detection in rat plasma ([2]; after administration of the GIGF extract, LLOQ 10 ng/mL): not detected; half-life [2, 5]: 1.39 ± 0.98 h
CC(/C=C/C=C(\C)C(=O)O)=C\C=C\C=C(C)\C=C\C=C(/C)C(=O)O [Crocetin] | 98.4% | 97.9% | 102% | 101% | 99.9% | 95.3% | 105% | 96.3% | 98.6% | 103% | 98.9% | 106% | 165 ± 52.9 ng/mL | 163 ± 76.4 ng/mL | 153 ± 81.9 ng/mL | 41.6 ± 57.6 h | 56.2 ± 43 h | 7.3 ± 3.93 h | 6.43 ± 5.02 h | 6.61 ± 4.05 h | Cmax [2, 6]: 91.2 ± 35.6 ng/mL; half-life [2, 5]: 12.8 ± 6.64 h; half-life [2, 6]: 31.8 ± 29.3 h; Tmax [2, 6]: 1.29 ± 2.31 h
CC(/C=C/C=C(\C)C(=O)O[C@@H]1O[C@H](CO)[C@@H](O)[C@H](O)[C@H]1O)=C\C=C\C=C(C)\C=C\C=C(/C)C(=O)O[C@@H]1O[C@H](CO[C@@H]2O[C@H](CO)[C@@H](O)[C@H](O)[C@H]2O)[C@@H](O)[C@H](O)[C@H]1O [crocin II] |  |  |  |  |  |  |  |  |  |  |  |  |  |  |  |  |  |  |  |  | Detection in rat plasma ([2]; plasma samples after oral administration of GF extracts): not detected
CC(/C=C/C=C(\C)C(=O)O[C@@H]1O[C@H](CO[C@@H]2O[C@H](CO)[C@@H](O)[C@H](O)[C@H]2O)[C@@H](O)[C@H](O)[C@H]1O)=C\C=C\C=C(C)\C=C\C=C(/C)C(=O)O[C@@H]1O[C@H](CO[C@@H]2O[C@H](CO)[C@@H](O)[C@H](O)[C@H]2O)[C@@H](O)[C@H](O)[C@H]1O [crocin I] |  |  |  |  |  |  |  |  |  |  |  |  |  |  |  |  |  |  |  |  | Detection in rat plasma [3]: not detected
